Data set [1] has as its target T1, SARS-CoV-2 3CLpro (Severe acute respiratory syndrome coronavirus 2, UniProt P0DTD1). Put plainly: Thermal shift assay. Format: binding. Conditions: compared with DMSO control.
The conditions of data set [2]: retrieved from database; ref TCMSP database; cited from earlier work.
Data set [3] concerns 3CLpro. Conditions: read-out: IC50, inhibition of 3CLpro activity; cited from earlier work.
The subject of data set [4] is 3CLpro. Particulars: cited from earlier work.
For data set [5], the target named is T1, SARS-CoV-2 3CLpro. Briefly: SPR binding assay on immobilized 3CLpro.
Data set [6] concerns the target T1, SARS-CoV-2 3CLpro. Briefly: FRET protease assay, 3CLpro enzyme activity inhibition. The data set is classed as biochemical.
A short description of the next data set: Water solubility. The data set is classed as physicochemical.

Each structure is given as a SMILES string. Some results are limits rather than exact numbers.

For `O=C(O[C@@H]1Cc2c(O)cc(O)cc2O[C@@H]1c1cc(O)c(O)c(O)c1)c1cc(O)c(O)c(O)c1` [Epigallocatechin-3-gallate, epigallocatechin-3-gallate], on SARS-CoV-2 3CLpro [1], the “effect on thermal stability of 3CLpro” value is on record as “altered the thermal stability of SARS-CoV-2 3CLpro in a dose-dependent manner”. Further, the “OB (oral bioavailability)” value in data set [2] is 55.09%. `O=c1c2ccccc2[se]n1-c1ccccc1` [Ebselen]: the IC50 (usually the concentration needed to halve the response being measured) in the data set with 3CLpro [3] is 670 ± 90 nM. In addition, the EC50 (in general, the concentration giving half of the maximal effect) with 3CLpro [4] is 4670 ± 800 nM. Regarding `O=C1C[C@@H](c2ccc(O)cc2)Oc2cc(O)cc(O)c21` [Naringenin, naringenin], the Kd (usually a measure of binding affinity in units of concentration) at SARS-CoV-2 3CLpro [5] was 2870 nM. For the same compound, the IC50 on SARS-CoV-2 3CLpro [6] is above 100000 nM. The like results for `O=c1cc(-c2ccc(O)c(O)c2)oc2cc(O)cc(O)c12` [Luteolin, luteolin] were, in that order, 1630 nM and 89700 nM. `O=c1c(O)c(-c2ccc(O)cc2)oc2cc(O)cc(O)c12` [Kaempferol, kaempferol] showed a Kd on SARS-CoV-2 3CLpro [5] of 1700 nM. In addition, the IC50 against SARS-CoV-2 3CLpro [6] was above 100000 nM. For `COc1cc(-c2oc3cc(O)cc(O)c3c(=O)c2O)ccc1O` [Isorhamnetin, isorhamnetin], the water solubility entry in the data set “Water solubility” was “low water solubility”.

The record behind these values is publication PMC7859723 (International Journal of Biological Macromolecules, 2021).
